Results from ChEMBL document CHEMBL3045058, “Comparative QSAR and pharmacophore modeling of substituted 2-[2-(dimethylamino) ethyl]-1, 2-dihydro-3H-dibenz[de,h]isoquinoline-1,3-diones derivatives as anti-tumor activity” (Med Chem Res, 2013).

Tests used:
[1] = Cytotoxicity against human melanoma cells; type: functional, cell-based; conditions: Melanoma cell
[2] = Cytotoxicity against human Ovarian cancer cells; type: functional, cell-based; conditions: Cancer cell lines

| SMILES | pIC50 [1] | pIC50 [2] |
| --- | --- | --- |
| CN(C)CCN1C(=O)c2cccc3cc4cc(O)ccc4c(c23)C1=O | 8.34 | 7.66 |
| CC(=O)Nc1ccc2c3c4c(cccc4cc2c1)C(=O)N(CCN(C)C)C3=O | 7.22 | 7.89 |
| CN(C)CCN1C(=O)c2c(N)ccc3cc4ccccc4c(c23)C1=O | 8.02 | 7.92 |
| CN(C)CCN1C(=O)c2c(Cl)ccc3cc4ccccc4c(c23)C1=O | 6.89 | 6.75 |
| CN(C)CCN1C(=O)c2cccc3cc4ccc(N)cc4c(c23)C1=O | 7.2 | 7.7 |
| CC(=O)Nc1ccc2cc3cccc4c3c(c2c1)C(=O)N(CCN(C)C)C4=O | 7.01 | 7.31 |
| CN(C)CCN1C(=O)c2cccc3cc4c(N)cccc4c(c23)C1=O | 4.69 | 5.02 |
| CN(C)CCN1C(=O)c2cccc3cc4ccc(O)cc4c(c23)C1=O | 5.92 | 5.72 |
| CN(C)CCN1C(=O)c2cccc3cc4c(O)cccc4c(c23)C1=O | 6.57 | 6.67 |
| CN(C)CCN1C(=O)c2cccc3cc4ccc(F)cc4c(c23)C1=O | 7.8 | 8.17 |
| CN(C)CCN1C(=O)c2cccc3cc4c(I)cccc4c(c23)C1=O | 6.08 | 5.68 |
| CN(C)CCN1C(=O)c2cccc3cc4ccc(C#N)cc4c(c23)C1=O | 7.96 | 7.92 |
| CN(C)CCN1C(=O)c2cccc3cc4ccc(-c5ccccc5)cc4c(c23)C1=O | 5.73 | 6.46 |
| CN(C)CCN1C(=O)c2c(NC(=O)C(C)(C)C)ccc3cc4ccccc4c(c23)C1=O | 5.06 | 6.18 |
| CCOc1ccc2cc3cccc4c3c(c2c1)C(=O)N(CCN(C)C)C4=O | 7.12 | 7.2 |
| CN(C)CCN1C(=O)c2cccc3cc4cc(N)ccc4c(c23)C1=O | 7.35 | 7.85 |
| CN(C)CCN1C(=O)c2cccc3cc4cccc(N)c4c(c23)C1=O | 6.02 | 5.76 |
| CN(C)CCN1C(=O)c2cccc3cc4c([N+](=O)[O-])cccc4c(c23)C1=O | 7.42 | 7.3 |
| CN(C)CCN1C(=O)c2cccc3cc4cccc(Cl)c4c(c23)C1=O | 5.69 | 5.05 |
| CN(C)CCN1C(=O)c2cccc3cc4cccc([N+](=O)[O-])c4c(c23)C1=O | 7.13 | 6.65 |

| SMILES | pIC50 [1] | pIC50 [2] |
| --- | --- | --- |
| CN(C)CCN1C(=O)c2cccc3cc4ccc(Cl)cc4c(c23)C1=O | 7.19 | 7.11 |
| CN(C)CCN1C(=O)c2cccc3cc4cc(Cl)ccc4c(c23)C1=O | 7.05 | 6.64 |
| CN(C)CCN1C(=O)c2cccc3cc4ccc(I)cc4c(c23)C1=O | 6.2 | 6.75 |
| COc1cccc2c3c4c(cccc4cc12)C(=O)N(CCN(C)C)C3=O | 7.28 | 7.28 |
| CC(=O)Nc1cccc2c3c4c(cccc4cc12)C(=O)N(CCN(C)C)C3=O | 5.92 | 5.7 |
| CC(=O)Nc1ccc2cc3ccccc3c3c2c1C(=O)N(CCN(C)C)C3=O | 6.01 | 6.21 |
| CC(=O)Nc1cccc2cc3cccc4c3c(c12)C(=O)N(CCN(C)C)C4=O | 5.61 | 5.61 |
| CC(C)C(=O)Nc1ccc2cc3cccc4c3c(c2c1)C(=O)N(CCN(C)C)C4=O | 6.26 | 6.48 |
| CN(C)CCNc1ccc2cc3ccccc3c3c2c1C(=O)N(CCN(C)C)C3=O | 6.53 | 6.24 |
| CN(C)CCN1C(=O)c2cccc3cc4ccc([N+](=O)[O-])cc4c(c23)C1=O | 7.44 | 7.64 |
| CN(C)CCN1C(=O)c2cccc3cc4c(Cl)cccc4c(c23)C1=O | 7.11 | 7.41 |
| Cc1ccc2cc3ccccc3c3c2c1C(=O)N(CCN(C)C)C3=O | 6.75 | 6.91 |
| Cc1ccc2cc3cccc4c3c(c2c1)C(=O)N(CCN(C)C)C4=O | 7.09 | 7.17 |
| COc1ccc2cc3ccccc3c3c2c1C(=O)N(CCN(C)C)C3=O | 6.74 | 6.3 |
| COc1ccc2cc3cccc4c3c(c2c1)C(=O)N(CCN(C)C)C4=O | 7.28 | 7.11 |
| CN(C)CCN1C(=O)c2c(O)ccc3cc4ccccc4c(c23)C1=O | 5.12 | 4.83 |
| CN(C)CCN1C(=O)c2cccc3cc4cccc(O)c4c(c23)C1=O | 6.27 | 5.72 |
| COc1ccc2c3c4c(cccc4cc2c1)C(=O)N(CCN(C)C)C3=O | 6.79 | 6.27 |
| CN(C)CCN1C(=O)c2cccc3cc4ccccc4c(c23)C1=O [AZONAFIDE] | 7.15 | 7.24 |
